We go through 20 molecules from patent US9828352B2, “Phenyl carbamates and their use as inhibitors of the fatty acid amide hydrolase (FAAH) enzyme and modulators of the D3 dopamine receptor (D3DR)” (FONDAZIONE ISTITUTO ITALIANO DI TECNOLOGIA, priority 2013, dated 2017).

SMILES strings stand for the structures. Structures can show the parent of a compound that is named as a salt.

One assay has as its target T1, human FAAH-1 (Homo sapiens, UniProt O00519).
T1 construct: expressed in transfected cells; host or cells: Hek293 cells stably transfected with human FAAH-1; membrane preparation
T1 sequence (O00519 1-579): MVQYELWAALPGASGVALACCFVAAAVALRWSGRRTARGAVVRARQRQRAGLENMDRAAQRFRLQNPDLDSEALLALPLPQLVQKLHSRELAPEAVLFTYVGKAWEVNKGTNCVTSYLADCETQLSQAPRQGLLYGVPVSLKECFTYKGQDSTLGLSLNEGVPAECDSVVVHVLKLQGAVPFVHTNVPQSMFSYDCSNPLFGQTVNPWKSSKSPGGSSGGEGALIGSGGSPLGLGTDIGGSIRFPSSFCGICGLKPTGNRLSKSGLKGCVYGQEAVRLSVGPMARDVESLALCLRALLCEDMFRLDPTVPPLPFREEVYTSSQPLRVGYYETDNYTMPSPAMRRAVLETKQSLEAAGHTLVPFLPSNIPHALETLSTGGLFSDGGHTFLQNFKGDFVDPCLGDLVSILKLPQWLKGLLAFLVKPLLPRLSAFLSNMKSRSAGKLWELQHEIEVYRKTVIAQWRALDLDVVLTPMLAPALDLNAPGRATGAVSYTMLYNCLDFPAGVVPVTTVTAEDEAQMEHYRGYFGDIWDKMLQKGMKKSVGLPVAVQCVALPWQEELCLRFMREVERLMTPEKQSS
Description: Human recombinant Fatty Acid Amide Hydrolase-1 (FAAH-1) fluorescent assay, Hek293-hFAAH-1 membranes. In kind it is biochemical. As to conditions: 3 separate experiments, each in triplicate. The method, then:
Human Recombinant Fatty Acid Amide Hydrolase-1 (FAAH-1) Fluorescent Assay
Hek293 cells stably transfected with human FAAH-1 were maintained in DMEM containing 10% FBS, 1% pen/strep and 500 μg/mL G418 to maintain selective pressure. Cells were scraped off with cold PBS1× pH7.4 from plates and collected by centrifugation (500 g, 10 minutes, 4° C.); cells pellets were re-suspended in homogenizing buffer (20 mM Tris-HCl pH7.4, 0.32M sucrose), disrupted by sonication (10 pulses, 5 times) and centrifuged at 800×g for 15 minutes at 4° C.; the resultant supernatants collected were then centrifuged at 105,000×g for 1 hr at 4° C. and membranes pellets were re-suspended in PBS1× pH7.4.
Protein concentration was measured and samples aliquot stored at −80° C. until use.
The blank (no activity) was prepared using 180 μL of assay buffer without Hek293-hFAAH-1 membrane preparation and 10 μL of DMSO.
After 50 minutes of pre-incubation of compounds with the enzyme at 37° C., the reaction was started by the addition of 10 μL of substrate (AMC Arachidonyl Amide, N.10005098, Cayman Chemical) for 30 min at 37° C. The substrate is prepared in Ethanol in order to achieve the final concentration of 2 μM.
Fluorescence was detected with Tecan Infinite M200 nanoquant (Tecan Group Ltd.) at an excitation wavelength 350 nm and an emission wavelength 460 nm.
(§1) EC50 or IC50 values (concentrations causing half-maximal response or inhibition of control agonist response) were determined by non-linear regression analysis of the Log [concentration]/response curves generated with mean replicate values using a four parameter Hill equation curve fitting with GraphPad Prism 5 (GraphPad Software Inc., CA—USA).

The next assay addresses T2, human-D3R (Homo sapiens, UniProt P35462).
T2 construct: expressed in transfected cells; host or cells: CHO cell line stably transfected with human D3R
Description: D3 Dopamine Receptor (D3dR) cellular assay, cAMP HTRF functional assay in human-D3R expressing CHO cells. In kind it is cell-based. As to conditions: for Emax: CHO, 0.5 h, % of 300 nM Dopamine response, read-out: Dopamine D3 % of Agonist Activity; for EC50: cAMP assay, CHO human-D3R, one experiment in duplicate. The procedure: D3 Dopamine Receptor (D3dR) Cellular Assay
Activity on D3R was tested with a cAMP functional assay on a stably transfected human-D3R expressing CHO cell line. On the day of the assay performance the cells were washed twice with PBS (w/o calcium and magnesium) and dislodged with a cell scraper, transferred to PBS, centrifuged and re-suspended in HBSS (w/o calcium and magnesium), supplemented with 1 g/L glucose and […] IBMX. The cell suspension was seeded on a 384 well plate (Greiner) and the assay was performed by adding compounds either test compounds alone (for agonist activity), or with test compound after a pre-incubation with 10 nM Dopamine as a stimulant (for antagonistic activity). After incubation (30 min at RT) the cell stimulation was stopped by adding the detecting reagents (cAMP-XL665 and anti-cAMP cryptate) diluted in lysis buffer. The signal was quantified by Homogenous Time-Resolved Fluorescence (HTRF) on a Perkin Elmer Envision plate reader after one hour of incubation at RT.
as §1
A general note: Time-resolved FRET reads energy transfer from a long-lived donor to a nearby acceptor.

T2 sequence (P35462 whole entry): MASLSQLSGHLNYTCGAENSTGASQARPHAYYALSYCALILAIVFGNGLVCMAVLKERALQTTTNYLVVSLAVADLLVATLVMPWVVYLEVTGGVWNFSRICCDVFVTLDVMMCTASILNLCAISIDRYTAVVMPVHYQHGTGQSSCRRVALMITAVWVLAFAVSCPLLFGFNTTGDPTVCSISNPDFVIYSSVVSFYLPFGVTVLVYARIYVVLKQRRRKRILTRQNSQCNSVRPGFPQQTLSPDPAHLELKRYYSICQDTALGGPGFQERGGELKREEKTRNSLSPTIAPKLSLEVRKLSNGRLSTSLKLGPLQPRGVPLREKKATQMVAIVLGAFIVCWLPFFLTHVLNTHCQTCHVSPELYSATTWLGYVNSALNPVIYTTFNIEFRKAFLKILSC

The term IC50 denotes the concentration at which inhibition is half-maximal. One may read the EC50 as the concentration at which the effect is half-maximal. Higher therefore signals a less potent agent. As for `O=C(NCCCCN1CCN(c2cccc(Cl)c2Cl)CC1)Oc1cccc(N2CCOCC2)c1` [Example 8, (3-morpholinophenyl) N-[4-[4-(2,3-dichlorophenyl)piperazin-1-yl]butyl] carbamate hydrochloride], at human FAAH-1, the IC50 amounted to 3.4 nM. Besides, at human-D3R, the Emax stood at 83% and the EC50 was 35 nM.

On to `O=C(NCCCCN1CCN(c2cccc(Cl)c2Cl)CC1)Oc1cccc(N2CCC(F)(F)CC2)c1` [Example 9, [3-(4,4-difluoro-1-piperidinyl)phenyl] N-[4-[4-(2,3-dichlorophenyl)piperazin-1-yl]butyl]carbamate hydrochloride], for which, on human FAAH-1, the IC50 came out at 17 nM. At human-D3R, the Emax amounted to 54.7% and the EC50 is 9.2 nM.

For the molecule `O=C(NCCCCN1CCN(c2cccc(Cl)c2Cl)CC1)Oc1ccc(N2CCC(F)(F)CC2)cc1` [Example 12, [4-(4,4-difluoro-1-piperidinyl)phenyl] N-[4-[4-(2,3-dichlorophenyl)piperazin-1-yl]butyl]carbamate hydrochloride], the IC50 on human FAAH-1 turned out to be 9.9 nM. On human-D3R, the Emax turned out to be 90.7% and the EC50 came to 49 nM.

For `Cc1ccccc1N1CCN(CCCNC(=O)Oc2cccc(N3CCOCC3)c2)CC1` [Example 13, (3-morpholino phenyl) N-[3-[4-(o-tolyl)piperazin-1-yl]propyl]carbamate hydrochloride], the IC50 at human FAAH-1 was 4.4 nM. Moreover, at human-D3R, the Emax came to 59.4% and a half-maximal response (EC50) required 150 nM.

As for `NC(=O)c1cccc(-c2cccc(OC(=O)NCCCCN3CCC(c4ccccc4)CC3)c2)c1` [Example 14, [3-(3-carbamoylphenyl)phenyl] N-[4-(4-phenyl-1-piperidinyl)butyl]carbamate hydrochloride], the IC50 on human FAAH-1 is 9.6 nM. Besides, on human-D3R, the Emax stood at 74.3% and a half-maximal response (EC50) required 36 nM.

On to `Cc1ccccc1N1CCN(CCCNC(=O)Oc2ccc(-c3ccccc3)cc2)CC1` [Example 15, (4-phenylphenyl) N-[3-[4-(o-tolyl)piperazin-1-yl]propyl]carbamate], for which the concentration for half-maximal inhibition (IC50) at human FAAH-1 amounted to 4.1 nM. At human-D3R, the Emax is 82% and the EC50 is 290 nM.

With `O=C(NCCCN1CCN(c2ccccc2C(F)(F)F)CC1)Oc1ccc(-c2ccccc2)cc1` [Example 16, (4-phenylphenyl) N-[3-[4-[2-(trifluoromethyl)phenyl]piperazin-1-yl]propyl] carbamate], the IC50 at human FAAH-1 came to 12 nM. In addition, at human-D3R, the Emax was 95.4% and the EC50 turned out to be 300 nM.

Consider `O=C(NCCCN1CCN(c2cccc(Cl)c2Cl)CC1)Oc1ccc2c(c1)[nH]c1ccccc12` [Example 17, 9H-carbazol-2-yl N-[3-[4-(2,3-dichlorophenyl)piperazin-1-yl]propyl]carbamate], for which the IC50 on human FAAH-1 was determined as 4.8 nM. At human-D3R, the Emax worked out at 91% and it took 150 nM to reach a half-maximal effect (EC50).

Turning to `O=C(NCCCN1CCN(c2ccccc2C(F)(F)F)CC1)Oc1ccc(N2CCC(F)(F)CC2)cc1` [Example 18, [4-(4,4-difluoro-1-piperidinyl)phenyl] N-[3-[4-[2-(trifluoromethyl)phenyl]piperazin-1-yl]propyl]carbamate hydrochloride], the IC50 at human FAAH-1 was 28 nM. Moreover, at human-D3R, the Emax came out at 86% and the EC50 was determined as 190 nM.

On to `NC(=O)c1cccc(-c2ccc(OC(=O)NCCCCN3CCN(c4cccc(Cl)c4Cl)CC3)cc2F)c1` [Example 21, [4-(3-carbamoylphenyl)-3-fluoro-phenyl] N-[4-[4-(2,3-dichlorophenyl)piperazin-1-yl]butyl]carbamate], for which, at human FAAH-1, the IC50 turned out to be 0.96 nM. For the same molecule, the Emax at human-D3R amounted to 69.4%.

Turning to `O=C(NCCCCN1CCN(c2cccc(Cl)c2Cl)CC1)Oc1ccc(-c2ccccn2)cc1` [Example 24, [4-(2-pyridyl)phenyl] N-[4-[4-(2,3-dichlorophenyl)piperazin-1-yl]butyl]carbamate], the IC50 on human FAAH-1 was determined as 0.21 nM. Moreover, at human-D3R, the Emax is 70.4% and the midpoint of the response, the EC50, lay at 5.92 nM.

On to `NC(=O)c1cccc(-c2ccc(OC(=O)NCCCCN3CCN(c4ccccc4)CC3)cc2)c1` [Example 25, [4-(3-carbamoylphenyl)phenyl] N-[4-(4-phenylpiperazin-1-yl)butyl]carbamate], for which the IC50 at human FAAH-1 was 3.5 nM. Further, at human-D3R, the Emax was 87.5% and the EC50 is 3.6 nM.

For the molecule `O=C(NCCCCN1CCN(c2cccc(Cl)c2Cl)CC1)Oc1ccc2c(c1)[nH]c1ccccc12` [Example 28, 9H-carbazol-2-yl N-[4-[4-(2,3-dichlorophenyl)piperazin-1-yl]butyl]carbamate], the IC50 on human FAAH-1 is 8 nM. On human-D3R, the Emax came to 89.7% and the EC50 worked out at 120 nM.

With `COc1ccccc1N1CCN(CCCCNC(=O)Oc2ccc3c(c2)[nH]c2ccccc23)CC1` [Example 33, 9H-carbazol-2-yl N-[4-[4-(2-methoxyphenyl)piperazin-1-yl]butyl]carbamate], on human FAAH-1, the IC50 came out at 37 nM. In addition, at human-D3R, the Emax turned out to be 65.9% and the concentration giving a half-maximal response (EC50) is 12 nM.

Take `O=C(NCCC(F)CN1CCN(c2cccc(Cl)c2Cl)CC1)Oc1ccc(-c2ccccc2)cc1` (centres unmarked) [Example 36, (4-phenylphenyl) N-[4-[4-(2,3-dichlorophenyl)piperazin-1-yl]-3-fluoro-butyl] carbamate]: the IC50 on human FAAH-1 came out at 1.3 nM. On human-D3R, the Emax amounted to 87.6% and the EC50 worked out at 150 nM.

Regarding `COc1cc(OC(=O)NCCCN2CCN(c3ccccc3OC)CC2)ccc1-c1ccccc1` [Example 37, (3-methoxy-4-phenyl-phenyl) N-[3-[4-(2-methoxyphenyl)piperazin-1-yl]propyl] carbamate hydrochloride], the IC50 on human FAAH-1 was determined as 7.8 nM. Moreover, on human-D3R, the Emax is 73.5% and the EC50 came to 38 nM.

In the case of `O=C(NCC(CF)N1CCN(c2cccc(Cl)c2Cl)CC1)Oc1ccc(-c2ccccc2)cc1` (centres unmarked) [Example 41, (4-phenylphenyl) N-[2-[4-(2,3-dichlorophenyl)piperazin-1-yl]-3-fluoro-propyl] carbamate hydrochloride], the IC50 on human FAAH-1 came to 9.9 nM.

Regarding `COc1ccccc1N1CCN(CCCNC(=O)Oc2ccc(Cc3ccccc3)cc2)CC1` [Example 43, (4-benzylphenyl) N-[3-[4-(2-methoxyphenyl)piperazin-1-yl]propyl]carbamate hydrochloride], at human FAAH-1, the IC50 is 18 nM.

On to `COc1ccccc1N1CCN(CCCNC(=O)Oc2ccc(C(=O)c3ccccc3)cc2)CC1` [Example 44, (4-benzoylphenyl) N-[3-[4-(2-methoxyphenyl)piperazin-1-yl]propyl]carbamate hydrochloride], for which the IC50 at human FAAH-1 was determined as 11 nM.

For `COc1ccccc1N1CCN(CCCCNC(=O)Oc2ccc(C(=O)c3ccccc3)cc2)CC1` [Example 45, (4-benzoylphenyl) N-[4-[4-(2-methoxyphenyl)piperazin-1-yl]butyl]carbamate hydrochloride], the IC50 at human FAAH-1 came to 5.3 nM. Moreover, on human-D3R, the Emax was determined as 51.4% and the EC50 came out at 29 nM.
